Measured values taken from patent US20250002487A1, “HETEROCYCLIC COMPOUNDS AND USES THEREOF” (Ventus Therapeutics U.S., Inc., priority 2021, published 2025).

Target: human-cGAS (h-cGAS) (Homo sapiens, UniProt Q8N884)
Assay: hcGAS Kinase-Glo Assay
Assay type: biochemical
Conditions: 40 nM h-cGAS, 100 μM ATP, 100 μM GTP, 25 nM dsDNA, 3 h incubation, read-out: hcGAS potency IC50
In short: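 Kinase-Glo luminescent read-out of human cGAS activity, following the published Lama et al. (2019) protocol with slightly altered conditions. Inhibition reported as IC50.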

Chain of human-cGAS (h-cGAS) (Q8N884 whole entry): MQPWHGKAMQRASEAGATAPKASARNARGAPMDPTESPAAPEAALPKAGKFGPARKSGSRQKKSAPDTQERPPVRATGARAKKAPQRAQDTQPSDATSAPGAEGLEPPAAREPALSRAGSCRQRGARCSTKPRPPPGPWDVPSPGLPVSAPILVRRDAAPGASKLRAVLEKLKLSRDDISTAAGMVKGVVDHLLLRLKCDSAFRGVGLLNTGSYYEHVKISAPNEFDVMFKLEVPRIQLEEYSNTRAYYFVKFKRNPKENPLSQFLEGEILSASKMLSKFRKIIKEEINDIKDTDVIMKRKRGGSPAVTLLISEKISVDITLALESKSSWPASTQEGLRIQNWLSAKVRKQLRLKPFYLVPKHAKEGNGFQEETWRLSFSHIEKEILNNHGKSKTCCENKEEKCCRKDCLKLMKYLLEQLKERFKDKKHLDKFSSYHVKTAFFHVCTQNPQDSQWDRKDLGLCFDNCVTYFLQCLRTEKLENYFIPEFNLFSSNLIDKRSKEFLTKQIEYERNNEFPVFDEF

`COc1ccc(Cc2ccc3noc(C(=O)Nc4nnc(SC)s4)c3c2)cc1O` [Compound 187, 5-(3-hydroxy-4-methoxybenzyl)-N-(5-(methylthio)-1,3,4-thiadiazol-2-yl)benzo[c]isoxazole-3-carboxamide] and `CSc1nnc(NC(=O)c2onc3ccc(Cc4ccc(O)cc4)cc23)s1` [Compound 188, 5-(4-hydroxybenzyl)-N-(5-(methylthio)-1,3,4-thiadiazol-2-yl)benzo[c]isoxazole-3-carboxamide] cannot be ordered by IC50: no less than 1000 nM for the first, 500 to 1000 nM for the second.

`CSc1nnc(NC(=O)c2onc3ccc(Cc4c[nH]c(=O)c(O)c4)cc23)s1` [Compound 189, 5-((5-Hydroxy-6-oxo-1,6-dihydropyridin-3-yl)methyl)-N-(5-(methylthio)-1,3,4-thiadiazol-2-yl)benzo[c]isoxazole-3-carboxamide] and `CSc1nnc(NC(=O)c2onc3ccc(CO)cc23)s1` [Compound 191, 5-(hydroxymethyl)-N-(5-(methylthio)-1,3,4-thiadiazol-2-yl)benzo[c]isoxazole-3-carboxamide] cannot be ordered by IC50: no less than 1000 nM for the first, no less than 1000 nM for the second.

First: CSc1nnc(NC(=O)c2nnn3c2ccc2ccccc23)s1 [Compound 190, N-(5-(methylthio)-1,3,4-thiadiazol-2-yl)-[1,2,3]triazolo[1,5-a]quinoline-3-carboxamide]
Second: CSc1nnc(NC(=O)c2onc3c2ccc2ccccc23)s1 [Compound 220, N-[5-(methylsulfanyl)-1,3,4-thiadiazol-2-yl]naphtho[1,2-c][1,2]oxazole-3-carboxamide]
The IC50 of the first is higher: no less than 1000 nM for the first, 100 to 500 nM for the second. The second is the more potent here.

First: CSc1nnc(NC(=O)c2onc3cc(C(=O)N(C)C)ccc23)s1 [Compound 192, N^6,N^6-dimethyl-N^3-(5-(methylthio)-1,3,4-thiadiazol-2-yl)benzo[c]isoxazole-3,6-dicarboxamide]
Second: CSc1nnc(NC(=O)c2onc3cc(C(=O)O)ccc23)s1 [Compound 204]
The IC50 of the first is higher: no less than 1000 nM for the first, 100 to 500 nM for the second.

First: CNC(=O)c1ccc2c(C(=O)Nc3nnc(SC)s3)onc2c1 [Compound 193, N6-methyl-N3-(5-(methylthio)-1,3,4-thiadiazol-2-yl)benzo[c]isoxazole-3,6-dicarboxamide]
Second: CSc1nnc(NC(=O)c2onc3cc(C)ccc23)s1 [Compound 221, 6-methyl-N-[5-(methylsulfanyl)-1,3,4-thiadiazol-2-yl]-2,1-benzoxazole-3-carboxamide]
The IC50 of the first is higher: no less than 1000 nM for the first, 100 to 500 nM for the second. The second is the more potent here.

`CSc1nnc(NC(=O)c2onc3cc(CO)ccc23)s1` [Compound 194, 6-(hydroxymethyl)-N-(5-(methylthio)-1,3,4-thiadiazol-2-yl)benzo[c]isoxazole-3-carboxamide] and `CSc1nnc(NC(=O)c2onc3cc(F)ccc23)s1` [Compound 222, 6-fluoro-N-[5-(methylsulfanyl)-1,3,4-thiadiazol-2-yl]-2,1-benzoxazole-3-carboxamide] fall in the same range of IC50: 500 to 1000 nM for the first, 500 to 1000 nM for the second.

`CSc1nnc(NC(=O)c2onc3c2CCCC3=O)s1` [Compound 195, N-(5-(methylthio)-1,3,4-thiadiazol-2-yl)-7-oxo-4,5,6,7-tetrahydrobenzo[c]isoxazole-3-carboxamide] and `CSc1nnc(NC(=O)c2onc3c2CCCC3O)s1` (centres unmarked) [Compound 196, 7-Hydroxy-N-(5-(methylthio)-1,3,4-thiadiazol-2-yl)-4,5,6,7-tetrahydrobenzo[c]isoxazole-3-carboxamide] cannot be ordered by IC50: no less than 1000 nM for the first, no less than 1000 nM for the second.

First: CCc1nnc(NC(=O)c2onc3c2ccc2cccnc23)s1 [Compound 197, N-(5-ethyl-1,3,4-thiadiazol-2-yl)isoxazolo[4,3-h]quinoline-3-carboxamide]
Second: CSc1nnc(NC(=O)c2onc3c(C)cccc23)s1 [Compound 226, 7-methyl-N-[5-(methylsulfanyl)-1,3,4-thiadiazol-2-yl]-2,1-benzoxazole-3-carboxamide]
The IC50 of the first is lower: 100 to 500 nM for the first, no less than 1000 nM for the second.

`CSc1nnc(NC(=O)c2cn(CCC(C)(C)C)nn2)s1` [Compound 198, 1-(3,3-dimethylbutyl)-N-(5-(methylthio)-1,3,4-thiadiazol-2-yl)-1H-1,2,3-triazole-4-carboxamide] and `COc1ccc2noc(C(=O)Nc3nnc(SC)s3)c2c1` [Compound 224, 5-methoxy-N-[5-(methylsulfanyl)-1,3,4-thiadiazol-2-yl]-2,1-benzoxazole-3-carboxamide] cannot be ordered by IC50: no less than 1000 nM for the first, no less than 1000 nM for the second.

`CSc1nnc(NC(=O)c2cc(=O)c3cccc(O)c3[nH]2)s1` [Compound 199, 8-hydroxy-N-(5-(methylthio)-1,3,4-thiadiazol-2-yl)-4-oxo-1,4-dihydroquinoline-2-carboxamide] and `CSc1nnc(NC(=O)c2cc3ccccc3c(=O)o2)s1` [Compound 207, N-(5-(methylthio)-1,3,4-thiadiazol-2-yl)-1-oxo-1H-isochromene-3-carboxamide] cannot be ordered by IC50: no less than 1000 nM for the first, no less than 1000 nM for the second.

`CSc1nnc(NC(=O)c2cc(O)cc(-c3ccccc3)n2)s1` [Compound 200, 4-hydroxy-N-(5-(methylthio)-1,3,4-thiadiazol-2-yl)-6-phenylpicolinamide] and `CSc1nnc(NC(=O)c2cc(-c3ccccc3)ncn2)s1` [Compound 201, N-(5-(methylthio)-1,3,4-thiadiazol-2-yl)-6-phenylpyrimidine-4-carboxamide] cannot be ordered by IC50: no less than 1000 nM for the first, no less than 1000 nM for the second.

First: CSc1nnc(NC(=O)c2cc(Oc3ccccc3)cc(=O)o2)s1 [Compound 202, N-(5-(methylthio)-1,3,4-thiadiazol-2-yl)-2-oxo-4-phenoxy-2H-pyran-6-carboxamide]
Second: CSc1nnc(NC(=O)c2cc(-c3ccccc3)cc(=O)o2)s1 [Compound 213, N-[5-(methylsulfanyl)-1,3,4-thiadiazol-2-yl]-6-oxo-4-phenylpyran-2-carboxamide]
The IC50 of the first is higher: 500 to 1000 nM for the first, 100 to 500 nM for the second. The second is the more potent here.

Compared with `CSc1nnc(NC(=O)c2cc(-c3ccccc3)c(C)c(=O)o2)s1` [Compound 203, 3-methyl-N-(5-(methylthio)-1,3,4-thiadiazol-2-yl)-2-oxo-4-phenyl-2H-pyran-6-carboxamide], `CSc1nnc(NC(=O)c2ccc(-c3ccccc3)c(=O)o2)s1` [Compound 225, N-[5-(methylsulfanyl)-1,3,4-thiadiazol-2-yl]-6-oxo-5-phenylpyran-2-carboxamide] is higher in IC50: 100 to 500 nM for the first, no less than 1000 nM for the second.

First: O=C(Nc1nnc(-c2ccccc2Cl)s1)c1cc(-c2ccccc2)cc(=O)o1 [Compound 205, N-[5-(2-chlorophenyl)-1,3,4-thiadiazol-2-yl]-6-oxo-4-phenylpyran-2-carboxamide]
Second: O=C(Nc1nnc(-c2ccccc2Cl)s1)c1cc(Nc2ccccc2)cc(=O)o1 [Compound 206, N-[5-(2-chlorophenyl)-1,3,4-thiadiazol-2-yl]-6-oxo-4-(phenylamino) pyran-2-carboxamide]
The IC50 of the first is higher: 100 to 500 nM for the first, less than 100 nM for the second.

`CSc1nnc(NC(=O)c2cc(-c3ccccc3)no2)s1` [Compound 208, N-[5-(methylsulfanyl)-1,3,4-thiadiazol-2-yl]-3-phenyl-1,2-oxazole-5-carboxamide] and `CSc1nnc(NC(=O)c2cc(-c3cccc(Cl)c3)no2)s1` [Compound 209, 3-(3-chlorophenyl)-N-[5-(methylsulfanyl)-1,3,4-thiadiazol-2-yl]-1,2-oxazole-5-carboxamide] fall in the same range of IC50: 500 to 1000 nM for the first, 500 to 1000 nM for the second.

`COc1ccc(-c2cc(C(=O)Nc3nnc(SC)s3)on2)cc1` [Compound 210] and `CSc1nnc(NC(=O)c2cc(-c3ccc(C)cc3)no2)s1` [Compound 215, 3-(4-methylphenyl)-N-[5-(methylsulfanyl)-1,3,4-thiadiazol-2-yl]-1,2-oxazole-5-carboxamide] cannot be ordered by IC50: no less than 1000 nM for the first, 500 to 1000 nM for the second.

`CSc1nnc(NC(=O)c2cc(-c3cccc(F)c3)no2)s1` [Compound 211, 3-(3-fluorophenyl)-N-[5-(methylsulfanyl)-1,3,4-thiadiazol-2-yl]-1,2-oxazole-5-carboxamide] and `CSc1nnc(NC(=O)c2cc(-c3cccc(C)c3)no2)s1` [Compound 219, 3-(3-methylphenyl)-N-[5-(methylsulfanyl)-1,3,4-thiadiazol-2-yl]-1,2-oxazole-5-carboxamide] fall in the same range of IC50: 500 to 1000 nM for the first, 500 to 1000 nM for the second.

`COc1cccc(-c2cc(C(=O)Nc3nnc(SC)s3)on2)c1` [Compound 212, 3-(3-methoxyphenyl)-N-[5-(methylsulfanyl)-1,3,4-thiadiazol-2-yl]-1,2-oxazole-5-carboxamide] and `CSc1nnc(NC(=O)c2cc(-c3cccc(C#N)c3)no2)s1` [Compound 214, 3-(3-cyanophenyl)-N-[5-(methylsulfanyl)-1,3,4-thiadiazol-2-yl]-1,2-oxazole-5-carboxamide] cannot be ordered by IC50: no less than 1000 nM for the first, no less than 1000 nM for the second.

Compared with `CSc1nnc(NC(=O)c2cc(-c3ccccc3Cl)no2)s1` [Compound 216], `CSc1nnc(NC(=O)c2cc(-c3ccccc3F)no2)s1` [Compound 217, 3-(2-fluorophenyl)-N-(5-(methylthio)-1,3,4-thiadiazol-2-yl)isoxazole-5-carboxamide] is lower in IC50: 500 to 1000 nM for the first, 100 to 500 nM for the second.

`CSc1nnc(NC(=O)c2cc(-c3ccccc3C)no2)s1` [Compound 218, 3-(2-methylphenyl)-N-[5-(methylsulfanyl)-1,3,4-thiadiazol-2-yl]-1,2-oxazole-5-carboxamide] and `CSc1nnc(NC(=O)c2onc3ccc(C)cc23)s1` [Compound 227, 5-methyl-N-[5-(methylsulfanyl)-1,3,4-thiadiazol-2-yl]-2,1-benzoxazole-3-carboxamide] fall in the same range of IC50: 500 to 1000 nM for the first, 500 to 1000 nM for the second.

`CSc1nnc(NC(=O)c2onc3ccc(F)cc23)s1` [Compound 223, 5-fluoro-N-[5-(methylsulfanyl)-1,3,4-thiadiazol-2-yl]-2,1-benzoxazole-3-carboxamide] and `CSc1nnc(NC(=O)c2onc3ccc(Cl)cc23)s1` [Compound 229, 5-chloro-N-[5-(methylsulfanyl)-1,3,4-thiadiazol-2-yl]-2,1-benzoxazole-3-carboxamide] fall in the same range of IC50: 500 to 1000 nM for the first, 500 to 1000 nM for the second.

First: CSc1nnc(NC(=O)c2onc3c(Cl)cccc23)s1 [Compound 228, 7-chloro-N-[5-(methylsulfanyl)-1,3,4-thiadiazol-2-yl]-2,1-benzoxazole-3-carboxamide]
Second: COc1cccc2c(C(=O)Nc3nnc(SC)s3)onc12 [Compound 230, 7-methoxy-N-[5-(methylsulfanyl)-1,3,4-thiadiazol-2-yl]-2,1-benzoxazole-3-carboxamide]
The IC50 of the first is higher: 500 to 1000 nM for the first, 100 to 500 nM for the second. The second is the more potent here.
